From PubChem BioAssay AID1963597 (National Center for Advancing Translational Sciences (NCATS), 2024)

Test system: human liver microsomes, metabolic stability half-life
Test: NCATS Human Liver Microsomal (HLM) Stability Profiling
Conditions: higher = more stable; screened at 1 µM (by protocol)
Description: Assay submitter (PI): Dr. Pranav Shah
NIH Center for Advancing Translational Sciences
Pharmacokinetic issues were the leading cause of drug attrition, accounting for approximately 40% of all cases before the turn of the century. To this end, several high-throughput in vitro assays like microsomal stability have been developed to evaluate the pharmacokinetic profiles of compounds in early stages of drug discovery. At NCATS, a single-point rat liver microsomal (RLM) stability assay is used as a Tier I assay, while human liver microsomal (HLM) stability is employed as a Tier II assay. While it is beneficial to have compound libraries screened for HLM stability, the increasing magnitude of hits routinely generated, and the time- and re-source-intensive nature of the assay makes it important to find alternatives. One strategy is to rely on in silico models that have been developed using data generated from these assays. Herein, we describe the development of an HLM stability prediction model using our in-house dataset of ~7,000 compounds, employing both traditional and advanced machine learning methods. Additionally, the strong correlation between our RLM and HLM data was further reinforced by the fact that our HLM model performance improved after adding RLM stability predictions as an input descriptor. […] The best model along with a subset of our dataset has been made publicly accessible on the NCATS@ADME website for the benefit of the greater drug discovery community.
Microsomal Stability Assay
The substrate depletion method, also called the in vitro t1/2 method was used to analyze test compounds. Incubation and liquid handling were carried out using a previously described method (Shah et al., 2016). Briefly, each reaction mixture (110 µL) consisted of a test article (1 µM), human liver microsomes (0.5 mg/mL), and NADPH regenerating system in phosphate buffer at pH 7.4. Samples were incubated in 384-well plates at 37 degrees C for 0, 5, 10, 15, 30 and 60 min. At each time point, 10 µL of the incubation mixture was aspirated into another 384-well plate which contained cold acetonitrile (ACN) with internal standard (albendazole). All plates were centrifuged at 3000 rpm for 20 min at 4 degrees C, and the supernatants were transferred to a 384-well injection plate. Sample quantification and analysis was performed using a previously described method (Shah et al., 2016, Siramshetty et al., 2020).
1: Shah, P. et al. An Automated High-Throughput Metabolic Stability Assay Using an Integrated High-Resolution Accurate Mass Method and Automated Data Analysis Software. Drug Metab Dispos 44, 1653-1661 (2016).
2: Siramshetty et al. Retrospective assessment of rat liver microsomal stability at NCATS: data and QSAR models. Sci Rep 26;10(1):20713 (2020).

Going from `CCOP(=S)(OCC)Oc1nc(Cl)c(Cl)cc1Cl` to `CCC(CC)Nc1nc(C)c(-c2ccc(OC(F)(F)F)cc2OC)nc1OC`, the half-life rises from 1.81 min to 20.5 min (11-fold).

`COc1cc(N2CCOCC2)ccc1NC(=O)c1csc(-c2cccnc2)n1` and `CNC(=O)c1ccccc1Nc1nc(Nc2ccc(N3CCOCC3)cc2OC)ncc1Cl` are within 1.5-fold of each other in half-life: 30.2 min for the first, 34.9 min for the second.

Compared with `Cc1c(CN2CCN(C(=O)C(C)C)CC2)sc2c(N3CCOCC3)nc(-c3cnc(N)nc3)nc12`, `C#CCN(Cc1cc2c(=O)n(C)c(CN3CCN(C)CC3)nc2cc1Cl)c1ccc(C(=O)NCc2cccnc2)cc1` is lower in half-life: over 120 min for the first, 4.83 min for the second.

`C[C@H]1COc2c(C3(N)CC3)c(F)cc3c(=O)c(C(=O)O)cn1c23` and `C=CCN1CC[C@]23c4c5ccc(O)c4O[C@H]2C(=O)CC[C@@]3(O)[C@H]1C5` cannot be ordered by half-life: over 120 min for the first, over 120 min for the second.

Going from `CN1C(=O)C(Cc2ccc3ccccc3c2)N=C(c2ccc(O)cc2)c2cc(Cl)ccc21` (configuration not stated) to `CCN1CCN(C(=O)Cc2ccc(Nc3ncc(F)c(Nc4ccc(C(=O)Nc5ccccc5Cl)cc4)n3)cc2)CC1`, the half-life falls from over 120 min to 4.23 min.

First: CCN(CC)CCCN(c1ccccc1)C1Cc2ccccc2C1
Second: CC(CC1c2ccccc2CCc2ccccc21)CN(C)C (configuration not stated)
The half-life of the first is 7.6-fold lower: 11.5 min for the first, 87.7 min for the second.

`CC(C)(C)c1cnc(CSc2cnc(NC(=O)C3CCNCC3)s2)o1` and `COc1cc(C(=O)NC2CCCNC2)cc(OC)c1OC` (configuration not stated) cannot be ordered by half-life: over 120 min for the first, over 120 min for the second.

Going from `CCOc1cc(=O)n2c(c1C(=O)Nc1ccc(S(N)(=O)=O)cc1)CCCC2` to `CN1c2cc(C(=O)Nc3ccc(C#N)cc3)ccc2C(=O)N2CCCCC21` (configuration not stated), the half-life falls from over 120 min to 44.3 min.

Going from `COc1cccc(C(=O)Nc2nc(-c3nnn(-c4ccccc4C(F)(F)F)c3C)ns2)c1` to `Cc1ccc(Nc2nc3ccccc3c3nnc(C)n23)c(C)c1`, the half-life falls from over 120 min to 6.47 min.

First: CCOCCCNC(=O)C(=O)Nc1c2c(nn1-c1ccc(OC)cc1)CSC2
Second: COc1ccc(-c2ccn(CC[C@](C)(C(=O)NO)S(C)(=O)=O)c(=O)c2)c(F)c1
The half-life of the first is lower: 42.3 min for the first, over 120 min for the second.

Compared with `CC(=O)O[C@]1(C(C)=O)CC[C@H]2[C@@H]3C=C(Cl)C4=CC(=O)CC[C@]4(C)[C@H]3CC[C@@]21C`, `C[C@]12CC[C@@H]3c4ccc(O)cc4CC[C@H]3[C@@H]1C[C@@H](O)[C@@H]2O` is higher in half-life: 36.7 min for the first, over 120 min for the second.

Compared with `CCc1cc(-c2n[nH]c(C)c2-c2ccc3c(c2)OCCO3)c(O)cc1O`, `O=C1c2ccccc2C(=O)c2c(O)c(O)cc(O)c21` is 4.5-fold higher in half-life: 13.4 min for the first, 59.8 min for the second.

Going from `CCCn1ncc(CN2CCCC(C(=O)c3cccc(OC(C)C)c3)C2)c1C` (configuration not stated) to `CCCN(CCC)CCc1cccc2c1CC(=O)N2`, the half-life rises from 8.9 min to over 120 min.

Compared with `CC1=CC(=O)c2ccccc2C1=O`, `Cc1noc(C)c1-c1cc(O)cc(C(O)c2ccccc2)c1` (configuration not stated) is 4.1-fold higher in half-life: 11.4 min for the first, 46.2 min for the second.

First: COc1cnc(-c2ccc(Cn3c(CC(C)(C)C(=O)O)c(SC(C)(C)C)c4cc(OC[C@@H]5Cc6ccccc6N5C(C)=O)ccc43)cc2)nc1
Second: CC(C)(C)c1ccc(-c2nc(SCC(=O)Nc3ccc(Cl)cc3)[nH]c(=O)c2C#N)cc1
The half-life of the first is 1.6-fold lower: 12.1 min for the first, 19.2 min for the second.

Going from `Cc1ccc(NC(=O)Nc2cccs2)c(C)c1` to `CCOC(=O)Nc1ccc(NCc2ccc(F)cc2)cc1N`, the half-life rises from 23.8 min to over 120 min.

`COc1ccc(C(CN(C)C)C2(O)CCCCC2)cc1` (configuration not stated) and `Cc1ccc(S(=O)(=O)NC(=O)NN2CCCCCC2)cc1` cannot be ordered by half-life: over 120 min for the first, over 120 min for the second.

First: COc1cc(NC(=O)Nc2cccc(CNC(=O)O[C@H]3CCOC3)c2)ccc1-c1cnco1
Second: Cc1nn(CC(=O)NCCc2ccccc2)c(=O)c2c1sc1ccccc12
The half-life of the first is 4.1-fold higher: 27.7 min for the first, 6.82 min for the second.

Going from `N#C/C(=C1\SCC(c2ccccc2Cl)S1)n1ccnc1` (configuration not stated) to `O=C(O)CCCc1ccccc1`, the half-life rises from 86.2 min to over 120 min.

Compared with `CN(C)c1ccc2nc3ccc(=[N+](C)C)cc-3sc2c1`, `CO[C@@H](Cc1ccc(OCCc2nc(-c3ccccc3)oc2C)c2ccsc12)C(=O)O` is lower in half-life: over 120 min for the first, 72.2 min for the second.

First: CCCc1ccc(C(=O)O)cc1
Second: COc1cc2c(Nc3ccc(Cl)c(Cl)c3F)ncnc2cc1OCC1C[C@@H]2CN(C)C[C@@H]2C1 (some centres not stated)
The half-life of the first is higher: over 120 min for the first, 61.9 min for the second.
